Assay results from US6426076B1 (PASCO Pharmazeutische Präparate GmbH, priority 1997, dated 2002).

Tests used:
skin metastases = assay: Case 1: vitamin C infusions in a patient with breast carcinoma, local recurrences and skin metastases; assay type: in vivo, human; details: vitamin C infusions of 7.5 g per infusion
[1] = tested on: metastatic breast cancer and massive bone metastases; assay: Case 2: vitamin C infusions in a patient with metastatic breast cancer and bone metastases, with concomitant chemotherapy; assay type: in vivo, human; details: ten infusions of 7.5 g vitamin C each
[2] = tested on: normal tissue (skin and bone marrow); assay: Adjuvant vitamin C infusions with radiation therapy: radiation tolerance of normal tissue; assay type: in vivo
[3] = Combination therapy of cytostatics with vitamin C: loss of cytostatic effect; details: any of the cytostatics investigated
From the text: The side effects of chemotherapy are also attributed to an increase in the levels of free radicals in many tissues.

terminal cancer patients = details: 100 terminal cancer patients, 10 g vitamin C orally each day; cited from earlier work
cancer patients [4] = details: intravenous 0.5 to 10 g/day, then oral 10 to 30 g, cited from earlier work
tumor cell lines = details: in certain concentrations; cited from earlier work
normal cell lines = details: in the concentrations cytotoxic to tumor cell lines; cited from earlier work
cancer patients [5] = details: high-dose vitamin C therapy, case reports; cited from earlier work
[6] = Animal experiments: combination with adriamycin, survival time
[7] = intravenous infusion of 7.5 g vitamin C before and after each radiation

O=C1O[C@H]([C@@H](O)CO)C(O)=C1O [vitamin C, ascorbic acid]
comparison with local-acting cytostatic administered previously (skin metastases): superior to the local-acting cytostatic administered previously | effect on skin metastases (skin metastases): remission of the skin metastases | pain caused by the bone metastases [1]: great relief from the pain | blood picture (leukocytes and platelets) ([1]; concomitant chemotherapy): definite improvement in the blood picture (stabilization of leukocytes and platelets) | radioprotective effect on bone marrow [2, 7]: greatly improved | skin reactions accompanying radiation [2, 7]: can be prevented | increase of radiation tolerance of normal tissue ([2]; vitamin C infusions, without increasing the radiation dose required to remove the tumors): about 20% | loss of effect of the cytostatics [3]: no loss of effect | survival time versus control group (terminal cancer patients): longer than that of the control group | general well-being and Karnofsky scale (cancer patients [4]): improvement in general well-being and the Karnofsky scale | pain in skeletal metastasis (cancer patients [4]): relief from pain in cases of skeletal metastasis | protein tumor markers in the serum (cancer patients [4]): decline in protein tumor markers in the serum | malignant pleural effusions and pulmonary metastases (cancer patients [4]; in favorable cases): absorption of malignant pleural effusions and a reduction in the size of pulmonary metastases | effect on tumor cell lines (tumor cell lines): cytotoxic effect | growth of normal cell lines (normal cell lines): not influenced | general condition and remissions (cancer patients [5]): improvement in general condition and spontaneous remissions | survival time [6]: prolonged survival time
